Target: Cysteinyl leukotriene receptor 1 (Cavia porcellus)
Experiment: In vitro binding affinity against Cysteinyl leukotriene D4 receptor from guinea pig lung membrane

CCCC(CCc1nnn[nH]1)Cc1ccc(OCc2ccc3ccccc3n2)cc1 (stereo unspecified)
Ki: 11 nM

Source: BindingDB's records for doi:10.1021/jm00172a024 (Rorer Central Research, 1990)
